Each structure is given as a SMILES string.

The term IC50 denotes the concentration needed to halve the response being measured.

Sequence of PD-1/PD-L1 interaction (PD-1-Ig / PD-L1-His) (Q9NZQ7 other isoform, or with tags, fused parts or gaps): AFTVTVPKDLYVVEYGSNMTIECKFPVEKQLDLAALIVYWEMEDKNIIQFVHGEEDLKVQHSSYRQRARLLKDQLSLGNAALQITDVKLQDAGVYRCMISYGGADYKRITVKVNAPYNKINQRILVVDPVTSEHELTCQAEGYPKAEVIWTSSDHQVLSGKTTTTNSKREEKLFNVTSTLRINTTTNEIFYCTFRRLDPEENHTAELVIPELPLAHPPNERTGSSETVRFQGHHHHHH

In one assay the target is PD-1/PD-L1 interaction (PD-1-Ig / PD-L1-His) (Homo sapiens (Human), UniProt Q9NZQ7). The experiment in a line: PD-1/PD-L1 Homogenous Time-Resolved Fluorescence (HTRF) binding assay. The conditions noted are these: PD-1/PD-L1 HTRF binding assay; numeric value; read-out: Range or IC50. A digest of the protocol:
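Human PD-L1-His (10 nM final) was pre-incubated with inhibitor for 15 min, then PD-1-Ig (20 nM final) was added for a further 15 min in dPBS with 0.1% BSA and 0.05% Tween-20. Binding was detected by HTRF using Eu-cryptate anti-Ig (1 nM) and APC anti-His (20 nM).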
On the technique in general: In TR-FRET formats the signal depends on donor and acceptor labels being close together.
Turning to `Cc1c(COc2cc(OCc3cncc(C#N)c3)c(CNC[C@@H](O)CC(=O)O)cc2Cl)cccc1-c1ccc2c(c1)OCCO2` [Example 1250, (S)-4-((5-chloro-2-((5-cyanopyridin-3-yl)methoxy)-4-((3-(2,3-dihydrobenzo[b][1,4]dioxin-6-yl)-2-methylbenzyl)oxy)benzyl)amino)-3-hydroxybutanoic acid], the IC50 was determined as 1.19 nM.

As for `CC(=O)NCCNCc1cc(C)c(OCc2cccc(-c3ccc4c(c3)OCCO4)c2C#N)cc1OCc1cncc(C#N)c1` [Example 1305, N-(2-(4-(2-cyano-3-(2,3-dihydrobenzo[b][1,4]dioxin-6-yl)benzyloxy)-2-((5-cyanopyridin-3-yl)methoxy)-5-methylbenzylamino)ethyl)acetamide], the IC50 stood at 0.92 nM.

As to `Cc1cc(CN2CCCC[C@@H]2C(=O)O)c(OCc2cncc(C#N)c2)cc1OCc1cccc(-c2ccc3c(c2)OCCO3)c1C` [Example 1288, (R)-1-(2-((5-cyanopyridin-3-yl)methoxy)-4-(3-(2,3-dihydrobenzo[b][1,4]dioxin-6-yl)-2-methylbenzyloxy)-5-methylbenzyl)piperidine-2-carboxylic acid], the 50% inhibitory concentration (IC50) amounted to 1.88 nM.

The assay is the same for the next values; noted with them: PD-1/PD-L1 HTRF binding assay; value given as range class; read-out: Range or IC50.
Turning to `CC(=O)NCCNCc1ccc(OCc2cccc(-c3ccccc3)c2C)cc1OCc1ccccc1OC(F)(F)F` [Example 1087, N-(2-((4-((2-methyl-[1,1′-biphenyl]-3-yl)methoxy)-2-((2-(trifluoromethoxy)benzyl)oxy)benzyl)amino)ethyl)acetamide], the half-inhibitory concentration (IC50) is 100 to 20000 nM.

On to `Cc1c(COc2cc(OCc3cccc(C#N)c3)c(CN3CCCC[C@H]3C(=O)O)cc2Cl)cccc1-c1ccc2c(c1)OCCO2` [Example 1230, (S)-1-(5-chloro-2-((3-cyanobenzyl)oxy)-4-((3-(2,3-dihydrobenzo[b][1,4]dioxin-6-yl)-2-methylbenzyl)oxy)benzyl)piperidine-2-carboxylic acid], for which the 50% inhibitory concentration (IC50) is 0.6 to 10 nM.

For `Cc1c(COc2ccc(CN[C@H](CO)C(=O)O)c(OCc3cccc(C(N)=O)c3)c2)cccc1-c1ccc2c(c1)OCCO2` [Example 1325, (R)-2-((2-((3-carbamoylbenzyl)oxy)-4-((3-(2,3-dihydrobenzo[b][1,4]dioxin-6-yl)-2-methylbenzyl)oxy)benzyl)amino)-3-hydroxypropanoic acid], the IC50 lay in the range of 10 to 100 nM.

`C[C@](CO)(NCc1ccc(OCc2cccc(-c3ccc4c(c3)OCCO4)c2Cl)cc1OCc1cccc(C#N)c1)C(=O)O` [Example 1148, (R)-2-(4-(2-chloro-3-(2,3-dihydrobenzo[b][1,4]dioxin-6-yl)benzyloxy)-2-(3-cyanobenzyloxy)benzylamino)-3-hydroxy-2-methylpropanoic acid]: the IC50 is 0.6 to 10 nM.

Regarding `Cc1c(COc2ccc(CN[C@@H](C(=O)O)[C@@H](C)O)c(OCc3cccc(C#N)c3)c2)cccc1-c1ccc2c(c1)OCCO2` [Example 1125, (2R,3R)-2-((2-((3-cyanobenzyl)oxy)-4-((3-(2,3-dihydrobenzo[b][1,4]dioxin-6-yl)-2-methylbenzyl)oxy)benzyl)amino)-3-hydroxybutanoic acid], the half-maximal inhibitory concentration (IC50) lay within 0.6 to 10 nM.

As to `Cc1c(COc2cc(OCc3cccc(C#N)c3)c(CN[C@@H](CCS(C)(=O)=O)C(=O)O)cc2Cl)cccc1-c1ccc2c(c1)OCCO2` [Example 1200, (S)-2-((5-chloro-2-((3-cyanobenzyl)oxy)-4-((3-(2,3-dihydrobenzo[b][1,4]dioxin-6-yl)-2-methylbenzyl)oxy)benzyl)amino)-4-(methylsulfonyl)butanoic acid], the IC50 fell in the range of 10 to 100 nM.

In the case of `Cc1cc(OCc2cccc(-c3ccc4c(c3)OCCO4)c2C)cc(OCc2cccc(C#N)c2)c1CN[C@H](CO)C(=O)O` [Example 1002, (R)-2-(2-(3-cyanobenzyloxy)-4-(3-(2,3-dihydrobenzo[b][1,4]dioxin-6-yl)-2-methylbenzyloxy)-6-methylbenzylamino)-3-hydroxypropanoic acid], the IC50 lay in the range of 0.6 to 10 nM.

Regarding `Cc1cc(OCc2cccc(-c3ccc4c(c3)OCCO4)c2C)cc(OCc2cncc(C#N)c2)c1CN[C@@](C)(CO)C(=O)O` [Example 1010, (S)-2-(2-((5-cyanopyridin-3-yl)methoxy)-4-(3-(2,3-dihydrobenzo[b][1,4]dioxin-6-yl)-2-methylbenzyloxy)-6-methylbenzylamino)-3-hydroxy-2-methylpropanoic acid], the IC50 was 0.6 to 10 nM.

On to `Cc1c(COc2cc(OCc3cncc(C#N)c3)c(CN[C@H](CC(=O)O)C(=O)O)cc2Cl)cccc1-c1ccc2c(c1)OCCO2` [Example 3025, (R)-2-((5-chloro-2-((5-cyanopyridin-3-yl)methoxy)-4-((3-(2,3-dihydrobenzo[b][1,4]dioxin-6-yl)-2-methylbenzyl)oxy)benzyl)amino)succinic acid], for which the half-inhibitory concentration (IC50) is 0.6 to 10 nM.

Regarding `Cc1c(COc2cc(OCc3cccc(C#N)c3)c(CN3CCCC3C(=O)O)cc2Cl)cccc1-c1ccc2c(c1)OCCO2` (stereo not shown) [Example 1165, 1-(5-chloro-2-((3-cyanobenzyl)oxy)-4-((3-(2,3-dihydrobenzo[b][1,4]dioxin-6-yl)-2-methylbenzyl)oxy)benzyl)pyrrolidine-2-carboxylic acid], the IC50 fell in the range of 0.6 to 10 nM.

With `CC(=O)NCCNCc1cc(C)c(OCc2cccc(-c3ccc4c(c3)OCCO4)c2C#N)cc1OCc1cncc(C#N)c1` [Example 1305, N-(2-(4-(2-cyano-3-(2,3-dihydrobenzo[b][1,4]dioxin-6-yl)benzyloxy)-2-((5-cyanopyridin-3-yl)methoxy)-5-methylbenzylamino)ethyl)acetamide], the 50% inhibitory concentration (IC50) is 0.6 to 10 nM.

`Cc1c(COc2ccc(CNC[C@@H](O)CC(=O)O)c(OCc3cccc(C#N)c3)c2)cccc1-c1ccc2c(c1)OCCO2` [Example 1121, (S)-4-(2-(3-cyanobenzyloxy)-4-(3-(2,3-dihydrobenzo[b][1,4]dioxin-6-yl)-2-methylbenzyloxy)benzylamino)-3-hydroxybutanoic acid]: the 50% inhibitory concentration (IC50) was 0.6 to 10 nM.

`COc1cc(COc2cc(OCc3cccc(-c4ccccc4)c3C)ccc2CNCCNC(C)=O)cc(OC)c1` [Example 1107]: the half-inhibitory concentration (IC50) was in the range of 100 to 20000 nM.

Consider `CC(=O)NCCNCc1ccc(OCc2cccc(-c3ccccc3)c2C)cc1OCc1cc(C)cc(F)c1` [Example 1113, N-(2-((2-((3-fluoro-5-methylbenzyl)oxy)-4-((2-methyl-[1,1′-biphenyl]-3-yl)methoxy)benzyl)amino)ethyl)acetamide], for which the IC50 fell in the range of 100 to 20000 nM.

Take `CC[C@H](NCc1cc(Cl)c(OCc2cccc(-c3ccc4c(c3)OCCO4)c2C)cc1OCc1cccc(C#N)c1)C(=O)O` [Example 1201, (S)-2-((5-chloro-2-((3-cyanobenzyl)oxy)-4-((3-(2,3-dihydrobenzo[b][1,4]dioxin-6-yl)-2-methylbenzyl)oxy)benzyl)amino)butanoic acid]: the IC50 was 0.6 to 10 nM.

Regarding `Cc1c(COc2cc(OCc3ccnc(C(=O)N(C)C)c3)c(CO)cc2Cl)cccc1-c1ccc2c(c1)OCCO2` [Example 3019, 4-(4-chloro-5-{[3-(2,3-dihydro-1,4-benzodioxin-6-yl)-2-methylphenyl]methoxy}-2-(hydroxymethyl)phenoxymethyl)-N,N-dimethylpyridine-2-carboxamide], the IC50 lay within 100 to 20000 nM.

As for `Cc1c(COc2ccc(CNC[C@@H](O)CC(=O)O)c(OCc3cccc(C#N)c3)c2)cccc1-c1ccccc1` [Example 1011, (S)-4-((2-((3-cyanobenzyl)oxy)-4-((2-methyl-[1,1′-biphenyl]-3-yl)methoxy)benzyl)amino)-3-hydroxybutanoic acid], the IC50 was 0.6 to 10 nM.

`Cc1cc(CN[C@](C)(CO)C(=O)O)c(OCc2cncc(C#N)c2)cc1OCc1cccc(-c2ccc3c(c2)OCCO3)c1Cl` [Example 1156, (R)-2-(4-(2-chloro-3-(2,3-dihydrobenzo[b][1,4]dioxin-6-yl)benzyloxy)-2-((5-cyanopyridin-3-yl)methoxy)-5-methylbenzylamino)-3-hydroxy-2-methylpropanoic acid]: the IC50 fell in the range of 0.6 to 10 nM.

Take `Cc1c(COc2cc(OCc3cccc(C#N)c3)c(CN[C@@H](Cc3ccccn3)C(=O)O)cc2Cl)cccc1-c1ccc2c(c1)OCCO2` [Example 1221, (S)-2-((5-chloro-2-((3-cyanobenzyl)oxy)-4-((3-(2,3-dihydrobenzo[b][1,4]dioxin-6-yl)-2-methylbenzyl)oxy)benzyl)amino)-3-(pyridin-2-yl)propanoic acid]: the IC50 fell in the range of 0.6 to 10 nM.

On to `Cc1c(COc2cc(OCc3cccc(C#N)c3)c(CNC(CCS(C)(=O)=O)C(=O)O)cc2Cl)cccc1-c1ccc2c(c1)OCCO2` (stereo not shown) [Example 1182, 2-((5-chloro-2-((3-cyanobenzyl)oxy)-4-((3-(2,3-dihydrobenzo[b][1,4]dioxin-6-yl)-2-methylbenzyl)oxy)benzyl)amino)-4-(methylsulfonyl)butanoic acid], for which the IC50 was 0.6 to 10 nM.

Regarding `CC(=O)NCCNCc1ccc(OCc2cccc(-c3ccccc3)c2C)cc1OCc1ccc([N+](=O)[O-])cc1` [Example 1058, N-(2-((4-((2-methyl-[1,1′-biphenyl]-3-yl)methoxy)-2-((4-nitrobenzyl)oxy)benzyl)amino)ethyl)acetamide], the 50% inhibitory concentration (IC50) was in the range of 100 to 20000 nM.

For the molecule `Cc1c(COc2cc(OCc3cncc(C#N)c3)c(CN[C@](C)(CO)C(=O)O)cc2F)cccc1-c1ccc2c(c1)OCCO2` [Example 3001], the IC50 was in the range of 0.6 to 10 nM.

For the molecule `Cc1c(COc2ccc(CNC[C@@H](O)CC(=O)O)c(OCc3cccc(C#N)c3)c2Cl)cccc1-c1ccccc1` [Example 1232, (S)-4-((3-chloro-2-((3-cyanobenzyl)oxy)-4-((2-methyl-[1,1′-biphenyl]-3-yl)methoxy)benzyl)amino)-3-hydroxybutanoic acid], the IC50 was in the range of 100 to 20000 nM.

For `CC(=O)NCCNCc1ccc(OCc2cccc(-c3ccccc3)c2C)cc1OCc1ccc(C(C)(C)C)cc1` [Example 1046, N-(2-((2-((4-(tert-butyl)benzyl)oxy)-4-((2-methyl-[1,1′-biphenyl]-3-yl)methoxy)benzyl)amino)ethyl)acetamide], the IC50 lay within 100 to 20000 nM.

With `Cc1c(COc2ccc(CN[C@H](CO)C(=O)O)c(OCc3cccc(C#N)c3)c2Cl)cccc1-c1ccccc1` [Example 1231, (R)-2-((3-chloro-2-((3-cyanobenzyl)oxy)-4-((2-methyl-[1,1′-biphenyl]-3-yl)methoxy)benzyl)amino)-3-hydroxypropanoic acid], the IC50 lay in the range of 100 to 20000 nM.
